The text below walks through data of US20240083885A1, “COMPOSITIONS AND METHODS FOR INHIBITING M PRO PROTEASE ACTIVITY AND FOR PREVENTING AND TREATING SARS-COV-2 INFECTION” (priority 2020, published 2024).

The target of data set [1] is T1, SARS-CoV-2 M^pro (Severe acute respiratory syndrome coronavirus 2 (2019-nCoV) (SARS-CoV-2), UniProt P0DTD1). Briefly: biochemical.
Data set [2] concerns SARS-CoV-2. Briefly: microbe, parasite or virus in culture. The format is cell-based. Conditions: read-out: antiviral EC50 against SARS-CoV-2 in Vero E6 cells.
Data set [3] addresses T1, SARS-CoV-2 M^pro. It counts as binding.
Data set [4] addresses T1, SARS-CoV-2 M^pro. The data set can be described thus: biochemical. This is another data set of the same source.
In data set [5] the target is T1, SARS-CoV-2 M^pro. The data set can be described thus: cell-based.
Data set [6] deals with SARS-CoV-2. The data set can be described thus: microbe, parasite or virus in culture. It counts as cell-based. The note with it: read-out: antiviral EC50 against SARS-CoV-2 in Caco2-hACE2 cells.
The target of data set [7] is T2, calpain I (Homo sapiens (Human), UniProt P07384). The data set can be described thus: Host protease FRET-based enzymatic assay: calpain I. The format is biochemical. Here is the method: (§1) Enzymatic reactions against host proteases (Calpain I, Cathepisn K, Cathespsin L, Caspase-3 and Trypisn) were carried out as previously described (see, Xia, Z.; et al., ACS Pharmacol. Transl. Sci. 2021). Cathepsin B assay reaction was carried out as follows: Cathepsin B (catalog no. CTB-H5222) was diluted into 100 nM final concentration in a buffer containing 20 mM sodium acetate pH5.5, 1 mM EDTA and 2 mM DTT and the mixture was incubated for 30 min at 30° C. Activated Cathepsin B was further diluted to 500 pm in the reaction buffer (100 mM MES pH6.0, 1 mM EDTA, 2 mM DTT and 0.01% TWEEN 20).

Data set [8] has as its target T3, Cathepsin B (Homo sapiens (Human), UniProt P07858). The data set can be described thus: Host protease FRET-based enzymatic assay: cathepsin B. It counts as biochemical. Here is the method:
as §1

The target of data set [9] is cathepsin K (Homo sapiens (Human), UniProt P43235). The format is biochemical.
Data set [10] deals with T4, Cathepsin L (Homo sapiens (Human), UniProt P07711). The data set can be described thus: Host protease FRET-based enzymatic assay: cathepsin L. It counts as biochemical. How it is done:
The cathepsin L enzymatic assay was carried out as follows: human liver cathepsin L (EMD Millipore 219402) was activated by incubating at reaction buffer (20 mM sodium acetate, 1 mM EDTA and 5 mM DTT pH5.5) for 30 min at 30° C. Upon activation, the assay was assembled in 96-well plates with 100 μl of 300 pM cathepsin L protein in cathepsin L reaction buffer. Then 1 μl testing compound at various concentrations was added to each well and incubated at 30° C. for 30 min. The enzymatic reaction was initiated by adding 1 μl of 100 μM FRET substrate Z-Phe-Arg-AMC (the final substrate concentration is about 1 μM). The reaction was monitored in a Cytation 5 image reader with filters for excitation at 360/40 nm and emission at 460/40 nm at 30° C. for 1 hr. The IC50 values were calculated as described in above section.
as §1

Data set [11] deals with caspase-3 (Homo sapiens (Human), UniProt P42574). The data set can be described thus: Host protease FRET-based enzymatic assay: caspase-3. It counts as biochemical. Here is the method:
as §1

Data set [12] concerns trypsin. Briefly: Host protease FRET-based enzymatic assay: trypsin. It counts as biochemical.
A short description of data set [13]: in vitro. Conditions: African green monkey, CC50 in Vero E6 cells.
For data set [14], the target named is T4, Cathepsin L. Conditions: cited from earlier work.
For data set [15], the target named is T3, Cathepsin B. Conditions: cited from earlier work.
Data set [16] can be described thus: Cytotoxicity in Vero E6 cells (neutral red uptake). Conditions: African green monkey, CC50 in Vero E6 cells.
The test system of data set [17] is Vero E6 cells.
Data set [18] concerns the target T2, calpain I. Conditions: read-out: Additional off targets: Calpain I IC50; cited from earlier work.
The target in data set [19] is SARS-CoV M^pro (Severe acute respiratory syndrome coronavirus (SARS-CoV), UniProt P0C6X7). The data set can be described thus: biochemical.
Data set [20] addresses SARS-CoV-2 papain-like protease (PL^pro) (Severe acute respiratory syndrome coronavirus 2 (2019-nCoV) (SARS-CoV-2), UniProt P0DTD1). Briefly: biochemical.
The target of data set [21] is T1, SARS-CoV-2 M^pro. The data set can be described thus: biochemical. The format is binding.
The test system of data set [22] is Calu-3 cells. The note with it: human, 5 days.
A short description of data set [23]: in vitro. The note with it: human, CC50 in Calu-3 cells.
The subject of data set [24] is SARS-CoV-2. The data set can be described thus: microbe, parasite or virus in culture. The format is cell-based. The note with it: Severe acute respiratory syndrome coronavirus 2, Calu-3; read-out: antiviral EC50 against SARS-CoV-2 in Calu-3 cells.
Setting [25] is: read-out: IC50 against SARS-CoV-2 M^pro.
Setting [26] is: Severe acute respiratory syndrome coronavirus 2, Vero C1008.
The mark [27] stands for this setting: Severe acute respiratory syndrome coronavirus 2.
Where [28] appears, read: read-out: Additional off targets: Cathepsin B IC50.

Values joined by “and” are separate entries in the source; they are usually repeats but may differ in a detail not shown here. Identical values can stand only once. Like-named read-outs stand apart in the source and are kept apart here.

T4 sequence (P07711 114-333 limits assumed): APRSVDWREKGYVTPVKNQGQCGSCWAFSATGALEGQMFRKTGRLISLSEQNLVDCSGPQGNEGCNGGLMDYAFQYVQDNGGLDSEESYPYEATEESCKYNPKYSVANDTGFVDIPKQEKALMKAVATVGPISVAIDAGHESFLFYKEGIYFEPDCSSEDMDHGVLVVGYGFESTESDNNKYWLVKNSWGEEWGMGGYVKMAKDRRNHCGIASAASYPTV
cathepsin K, sequence (P43235 115-329 limits assumed): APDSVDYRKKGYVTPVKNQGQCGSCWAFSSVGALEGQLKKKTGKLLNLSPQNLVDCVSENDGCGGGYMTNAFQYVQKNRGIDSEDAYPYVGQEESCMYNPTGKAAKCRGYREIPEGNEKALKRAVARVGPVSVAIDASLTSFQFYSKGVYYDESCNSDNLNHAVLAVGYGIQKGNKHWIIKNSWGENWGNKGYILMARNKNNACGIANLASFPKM
caspase-3, sequence (P42574 29-175 limits assumed): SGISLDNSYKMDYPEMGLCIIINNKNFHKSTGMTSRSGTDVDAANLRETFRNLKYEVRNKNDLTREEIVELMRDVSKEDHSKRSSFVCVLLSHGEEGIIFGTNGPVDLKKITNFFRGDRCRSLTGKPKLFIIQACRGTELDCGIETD
caspase-3, sequence (P42574 176-277 limits assumed): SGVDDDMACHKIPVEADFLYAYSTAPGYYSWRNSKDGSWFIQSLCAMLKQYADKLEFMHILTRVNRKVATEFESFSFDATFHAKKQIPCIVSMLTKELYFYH

On to `C[C@H](NC(=O)[C@@H](c1cccnc1)N(C(=O)C(Br)(Br)Br)c1ccc(-c2ccccc2)cc1)c1ccccc1` [Jun9-88-6R, N-([1,1′-biphenyl]-4-yl)-2,2,2-tribromo-N-((R)-2-oxo-2-(((S)-1-phenylethyl)amino)-1-(pyridin-3-yl)ethyl)acetamide], for which the half-maximal inhibitory concentration (IC50) in [1] (setting [25]) is 0.08 µM; in data set [10], 7.37 µM. Also, the EC50 worked out at 0.58 µM in data set [2] (setting [26]), 0.92 µM in [5] and 2.15 µM in data set [6] (setting [27]). Further, in [3] (native mass spectrometry, covalent adduct), the “mass modification (mass shift) of M^pro adduct” value stood at 526 Da. In addition, in [4], the inactivation efficiency (kinact/KI) is 7070 M⁻¹ s⁻¹. For the same compound, in [7], the “inhibition of calpain I” value is on record as “did not show potent inhibition”. In data set [8], the “inhibition of cathepsin B” value was “did not show potent inhibition”. For the same compound, the “inhibition of cathepsin K” value in data set [9] was “did not show potent inhibition”. Further, the “selectivity for inhibiting SARS-CoV-2 M^pro over cathepsin L” value in data set [10] worked out at 94 fold. Also, in [11], the “inhibition of caspase-3 (IC50)” value is recorded as “did not show potent inhibition”. Moreover, the “inhibition of trypsin (IC50)” value in [12] is listed as “did not show potent inhibition”. The 50% cytotoxic concentration (CC50) at 5 days in data set [13] worked out at 5.48 µM.
For PF-00835231, the values for the half-maximal inhibitory concentration (IC50) in data set [14] (read-out: Cathepsin L IC50) and in data set [15] (setting [28]) were 0.146 µM and 1.3 µM, respectively.
As to `C[C@H](NC(=O)[C@@H](c1cccnc1)N(C(=O)C(Cl)Cl)c1ccc(-c2ccccc2)cc1)c1ccccc1` [Jun9-62-2R, N-([1,1′-biphenyl]-4-yl)-2,2-dichloro-N-((R)-2-oxo-2-(((S)-1-phenylethyl)amino)-1-(pyridin-3-yl)ethyl)acetamide], the “change of IC50 with pre-incubation time” value in data set [1] was “longer pre-incubation time gave lower IC50 values”. In addition, the EC50 worked out at 0.9 µM in data set [2] (setting [26]), 0.96 µM in [5] and 2.05 µM in [6] (setting [27]). Moreover, the “inhibition of calpain I” value in data set [7] is given as “did not show potent inhibition”. Besides, the “inhibition of cathepsin B” value in [8] was “did not show potent inhibition”. For the same compound, the “inhibition of cathepsin K” value in data set [9] is listed as “did not show potent inhibition”. In [10], the “inhibition of cathepsin L (IC50)” value is given as “did not show potent inhibition”. In addition, the “inhibition of caspase-3 (IC50)” value in [11] is recorded as “did not show potent inhibition”. Moreover, the “inhibition of trypsin (IC50)” value in [12] was “did not show potent inhibition”. The CC50 at 5 days in data set [16] was over 100 µM.
Consider `CC(C)C[C@H](NC(=O)OCc1ccccc1)C(=O)N[C@@H](CC1CCNC1=O)C(O)S(=O)(=O)[O-].[Na+]` (stereo partly shown) [GC-376, reference compound], for which the EC50 in data set [2] came to 1.51 µM; in data set [6] (Caco2-hACE2 cells) it was 2.9 µM. Further, the “inhibition of calpain I” value in data set [7] is “potent inhibition”. Also, the “inhibition of cathepsin B” value in [8] is given as “potent inhibition”. Also, in data set [9], the “inhibition of cathepsin K” value was “potent inhibition”. For the same compound, the “inhibition of cathepsin L (IC50)” value in [10] was “potent inhibition”. Further, the IC50 in data set [11] (read-out: inhibition of caspase-3 (IC50)) is […]; in data set [12] (read-out: inhibition of trypsin (IC50)), […]; in data set [14] (read-out: Cathepsin L IC50) it was 0.00099 µM; in [18], 0.074 µM. Further, in data set [17], the half-maximal cytotoxic concentration (CC50) is over 125 µM.
`C[C@@H](CCc1ccccc1)NC(=O)[C@@H](c1cccnc1)N(C(=O)C(Cl)Cl)c1ccc(-c2ccccc2)cc1` (single isomer, unassigned) [Jun9-90-4R]: in data set [1] (setting [25]), the IC50 turned out to be 0.46 µM. The concentration for a half-maximal effect (EC50) in [2] (setting [26]) is 1.1 µM; in [5], 1.57 µM; in data set [6] (setting [27]), 1.43 µM. In addition, in data set [4], the kinact/KI is 867 M⁻¹ s⁻¹. For the same compound, the 50% cytotoxic concentration (CC50) at 5 days in [13] is over 100 µM.
Regarding `C[C@H](NC(=O)C(c1cccnc1)N(C(=O)c1ccco1)c1ccc(-c2ccccc2)cc1)c1ccccc1` (single isomer, unassigned) [Compound 23R], the “change of IC50 with pre-incubation time” value in data set [1] is listed as “did not lead to significant changes of the IC50 value”. For the same compound, the IC50 was 0.15 µM and 0.13 µM in data set [1] (IC50 against SARS-CoV-2 M^pro); 0.15 ± 0.03 µM in [1] (SARS-CoV-2 M^pro IC50 (μM)); 0.27 ± 0.03 µM in data set [19]; over 20 µM in data set [20] (IC50 against SARS-CoV-2 papain-like protease (PL^pro)); over 60 µM in [20] (SARS-CoV-2 PL^pro IC50 (μM)). The concentration for a half-maximal effect (EC50) in [1] (SARS-COV-2 main protease enzymatic inhibition (separated diastereomers, printed as EC50)) worked out at 0.15 µM. The compound further gave a Kd in [21] of 9.43 µM. The “binding to SARS-CoV-2 M^pro in native mass spectrometry” value in [3] is on record as “dose-dependent binding”.
In the case of `C[C@H](NC(=O)C(c1cccnc1)N(C(=O)CCl)c1ccc(-c2ccccc2)cc1)c1ccccc1` (stereo partly drawn) [Jun9-54-1, 2-(N-{[1,1′-biphenyl]-4-yl}-2-chloroacetamido)-N-[(1S)-1-phenylethyl]-2-(pyridin-3-yl)acetamide], the 50% inhibitory concentration (IC50) in data set [1] (setting [25]) came out at 0.17 µM. In data set [22], this compound came in with a CC50 of under 3.5 µM. In [23], this compound came in with a CC50 at 5 days of under 2 µM.
In the case of `C[C@@H](OC(C)(C)C)[C@H](NC(=O)OCc1ccccc1)C(=O)N[C@@H](CC1CCCCC1)C(=O)N[C@H](C=O)C[C@@H]1CCNC1=O` [MPI8], the IC50 in data set [14] (read-out: Cathepsin L IC50) was 0.0012 µM; in data set [14] (read-out: IC50 cathepsin L (recent study)) it was 0.23 µM; in data set [15] (setting [28]), 0.23 µM; in [15] (read-out: IC50 cathepsin B (recent study)), 0.0012 µM.
For the compound `C[C@H](NC(=O)[C@@H](c1cccnc1)N(C(=O)C(Cl)Cl)c1ccc(-c2ccccc2)cc1)c1ccc(Br)cc1` [Jun9-90-3R], the IC50 in [1] (setting [25]) was determined as 0.3 µM. Further, the concentration for a half-maximal effect (EC50) in data set [2] (setting [26]) is 2.07 µM; in data set [5], 0.91 µM; in data set [6] (setting [27]), 3.24 µM; in data set [24] it was 2 µM. Also, the second-order inactivation constant (kinact/KI) in [4] worked out at 1540 M⁻¹ s⁻¹. In data set [13], this compound gave a CC50 at 5 days of over 100 µM.

By IC50 is commonly meant the midpoint of a concentration-inhibition curve. Usually EC50 stands for the midpoint of the concentration-response curve. For orientation: kinact/KI means the second-order rate constant of inactivation. Usually CC50 stands for the concentration at which the toxic effect on the cells reaches its halfway point. A low value points to greater toxicity to the cells. The Kd is a measure of binding affinity in units of concentration. Lower therefore signals a tighter complex.
